# Literature values, collected in patent publication US20220257649A1, “COMBINATION THERAPIES FOR MULTIPLE MYELOMA” (NantCell, Inc., priority 2018, published 2022).
# Columns and labels:
# multiple myeloma = details: for rate of nearly complete response (CR): in combination with dexamethasone, induction therapy before ASCT; for rate of nearly CR: three-drug induction schedule: bortezomib-dexamethasone plus the named drug
# [1] = test system: primary multiple myeloma cells; details: in the presence of peripheral lymphocytes
# [2] = test system: relapsed or refractory multiple myeloma; details: alone, with bortezomib, or with lenalidomide and low-dose dexamethasone
# IL-2Rβγ = target: T1, IL-2Rβγ (Homo sapiens, UniProt P14784+P31785); details: IL-15 mutant
# T1 sequence (P14784 27-551): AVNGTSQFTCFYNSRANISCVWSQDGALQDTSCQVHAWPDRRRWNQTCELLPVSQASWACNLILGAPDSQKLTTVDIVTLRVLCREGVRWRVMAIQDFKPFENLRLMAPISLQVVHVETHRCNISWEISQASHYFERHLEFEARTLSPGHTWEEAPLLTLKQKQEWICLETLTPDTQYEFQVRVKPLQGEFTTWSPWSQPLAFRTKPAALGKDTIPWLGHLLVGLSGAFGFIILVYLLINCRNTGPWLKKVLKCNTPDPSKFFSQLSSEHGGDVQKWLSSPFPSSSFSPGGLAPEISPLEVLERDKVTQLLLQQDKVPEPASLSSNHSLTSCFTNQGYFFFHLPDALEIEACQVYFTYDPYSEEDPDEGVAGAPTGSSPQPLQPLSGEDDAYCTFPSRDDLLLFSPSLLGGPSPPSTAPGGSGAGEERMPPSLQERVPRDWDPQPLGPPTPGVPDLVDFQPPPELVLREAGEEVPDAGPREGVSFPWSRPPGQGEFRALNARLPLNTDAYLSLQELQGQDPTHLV
# T1 sequence (P31785 23-369): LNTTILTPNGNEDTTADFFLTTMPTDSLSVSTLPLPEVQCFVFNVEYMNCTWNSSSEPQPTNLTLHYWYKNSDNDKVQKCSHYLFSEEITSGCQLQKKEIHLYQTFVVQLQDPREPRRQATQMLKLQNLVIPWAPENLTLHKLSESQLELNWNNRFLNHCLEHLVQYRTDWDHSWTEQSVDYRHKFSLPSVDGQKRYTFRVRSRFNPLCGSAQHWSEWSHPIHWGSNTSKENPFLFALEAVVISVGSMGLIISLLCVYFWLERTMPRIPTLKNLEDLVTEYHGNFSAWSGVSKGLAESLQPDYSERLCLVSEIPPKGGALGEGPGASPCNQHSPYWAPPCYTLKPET
# [3] = following i.v. administration in mice
# [4] = test system: aggressive solid and hematological tumor models
# IL-15 activity = details: in vitro and in vivo
molecule,measurement,setting,value
O=C1CCC(N2C(=O)c3ccccc3C2=O)C(=O)N1 (stereo not drawn) [Thalidomide],rate of nearly complete response (CR),multiple myeloma,8%
same,rate of nearly CR,multiple myeloma,32%
CC(C)C[C@H](NC(=O)[C@H](Cc1ccccc1)NC(=O)c1cnccn1)B(O)O [bortezomib],rate of nearly complete response (CR),multiple myeloma,16%
O=P1(N(CCCl)CCCl)NCCCO1 (stereo not drawn) [cyclophosphamide],rate of nearly CR,multiple myeloma,39%
COc1cccc2c1C(=O)c1c(O)c3c(c(O)c1C2=O)C[C@@](O)(C(=O)CO)C[C@@H]3O[C@H]1C[C@H](N)[C@H](O)[C@H](C)O1 [doxorubicin],rate of nearly CR,multiple myeloma,7%
Nc1cccc2c1CN(C1CCC(=O)NC1=O)C2=O (stereo not drawn) [lenalidomide],rate of nearly complete response (CR),multiple myeloma,15%
same,rate of nearly CR,multiple myeloma,57%
Elotuzumab: humanized monoclonal IgG1 antibody directed against CS-1,antibody-dependent cellular cytotoxicity (ADCC),[1],significant antibody-dependent cellular cytotoxicity (ADCC)
same,activity,[2],encouraging activity
same,safety profile,[2],manageable safety profile
IL-15N72D: IL-15 mutant with increased ability to bind IL-2Rβγ; component of N-803,ability to bind IL-2Rβγ,IL-2Rβγ,increased ability to bind IL-2Rβγ
N-803: IL-15 super agonist complex: IL-15 mutant (IL-15N72D) bound to an IL-15 receptor α/IgG1 Fc fusion protein,half-life,[3],25 h
same,anti-tumor activity,"[4]; aggressive solid and hematological tumor models, immunocompetent mice",impressive anti-tumor activity
same,resistance of cured tumor-bearing mice to re-challenge with the same tumor cells,[4]; mice cured after N-803 treatment,highly resistant to re- challenge
same,IL-15 activity,IL-15 activity,highly potent IL-15 activity
